Experimental data taken from US9725465B2, “Biaryl acetamide compounds and methods of use thereof” (Ambit Biosciences Corporation, priority 2013, dated 2017).

Tests used:
FLT3 kinase = FLT3 kinase (Homo sapiens (Human), UniProt P36888); assay: Competition binding assay (Kd), FLT3; details: competition binding assay
KIT kinase = KIT kinase (Homo sapiens (Human), UniProt P10721); assay: Competition binding assay (Kd), KIT; details: competition binding assay
Summary of the method: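 Kd derived from eleven-point threefold serial dilutions of compound competing with bead-bound ligand for kinase; bound kinase eluted and measured by quantitative PCR. Kinase supplied either as a T7 phage fusion or expressed in HEK-293 cells with a DNA tag; DMSO served as control.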

FLT3-ITD = FLT3-ITD (Homo sapiens (Human), UniProt P36888, INS600HVDFREYEYD); assay: pFLT3 MSD assay, Ba/F3 FLT3-ITD; format: cell-based; details: Ba/F3 FLT3-ITD cells, 2 hours, read-out: BaF3-FLT3-ITD pFlt3 IC50
FLT3-ITD, sequence (P36888 other isoform, or with tags, fused parts or gaps limits assumed, stated change not applied): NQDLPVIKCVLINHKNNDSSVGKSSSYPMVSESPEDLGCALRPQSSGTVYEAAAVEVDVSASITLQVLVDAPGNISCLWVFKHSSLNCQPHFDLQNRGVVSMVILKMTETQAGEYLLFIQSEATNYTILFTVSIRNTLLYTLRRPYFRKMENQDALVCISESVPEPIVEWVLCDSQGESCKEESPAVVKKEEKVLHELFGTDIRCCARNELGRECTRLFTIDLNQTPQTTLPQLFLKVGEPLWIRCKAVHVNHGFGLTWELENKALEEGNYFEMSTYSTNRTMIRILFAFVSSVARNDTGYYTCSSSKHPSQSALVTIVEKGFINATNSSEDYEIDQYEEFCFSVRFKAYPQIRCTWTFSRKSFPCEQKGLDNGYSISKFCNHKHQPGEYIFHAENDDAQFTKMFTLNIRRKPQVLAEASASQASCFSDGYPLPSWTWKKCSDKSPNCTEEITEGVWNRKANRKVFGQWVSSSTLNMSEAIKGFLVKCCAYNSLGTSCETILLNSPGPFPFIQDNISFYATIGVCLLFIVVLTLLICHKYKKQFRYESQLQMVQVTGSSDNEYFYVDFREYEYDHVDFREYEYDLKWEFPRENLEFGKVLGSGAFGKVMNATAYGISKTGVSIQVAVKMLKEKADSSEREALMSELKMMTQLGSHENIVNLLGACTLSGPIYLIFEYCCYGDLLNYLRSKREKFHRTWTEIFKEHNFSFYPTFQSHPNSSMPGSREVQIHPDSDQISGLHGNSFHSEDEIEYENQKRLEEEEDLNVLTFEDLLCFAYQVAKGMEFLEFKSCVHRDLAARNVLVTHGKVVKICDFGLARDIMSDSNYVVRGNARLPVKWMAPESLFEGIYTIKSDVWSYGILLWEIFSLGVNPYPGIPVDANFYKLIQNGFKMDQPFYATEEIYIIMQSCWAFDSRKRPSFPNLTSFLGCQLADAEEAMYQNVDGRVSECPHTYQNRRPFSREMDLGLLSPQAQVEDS

FLT3 kinase, sequence (P36888 27-993): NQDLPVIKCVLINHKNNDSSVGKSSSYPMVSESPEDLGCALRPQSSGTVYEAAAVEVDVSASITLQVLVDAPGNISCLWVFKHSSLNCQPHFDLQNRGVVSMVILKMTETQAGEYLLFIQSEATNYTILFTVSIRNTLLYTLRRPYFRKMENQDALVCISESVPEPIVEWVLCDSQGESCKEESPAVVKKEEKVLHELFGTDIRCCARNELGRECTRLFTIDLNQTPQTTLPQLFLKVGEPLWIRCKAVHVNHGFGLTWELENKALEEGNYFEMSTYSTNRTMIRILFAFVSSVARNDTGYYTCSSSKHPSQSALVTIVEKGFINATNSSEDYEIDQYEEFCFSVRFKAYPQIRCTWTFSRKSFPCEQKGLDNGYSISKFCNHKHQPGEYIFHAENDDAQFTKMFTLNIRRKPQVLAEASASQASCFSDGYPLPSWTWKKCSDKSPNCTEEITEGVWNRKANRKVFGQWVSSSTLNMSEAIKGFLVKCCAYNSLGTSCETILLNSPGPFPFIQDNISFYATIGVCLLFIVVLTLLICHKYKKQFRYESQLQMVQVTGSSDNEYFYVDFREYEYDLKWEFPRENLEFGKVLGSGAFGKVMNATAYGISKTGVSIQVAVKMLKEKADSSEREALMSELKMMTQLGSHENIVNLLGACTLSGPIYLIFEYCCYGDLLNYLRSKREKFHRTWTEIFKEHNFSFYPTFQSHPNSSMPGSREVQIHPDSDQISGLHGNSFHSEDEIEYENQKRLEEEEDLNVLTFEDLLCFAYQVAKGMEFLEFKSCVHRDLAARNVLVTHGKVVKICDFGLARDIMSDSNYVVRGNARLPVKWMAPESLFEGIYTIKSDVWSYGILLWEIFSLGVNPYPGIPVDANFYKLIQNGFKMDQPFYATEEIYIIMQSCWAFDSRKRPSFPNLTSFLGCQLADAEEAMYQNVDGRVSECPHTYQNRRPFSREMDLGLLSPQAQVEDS
KIT kinase, sequence (P10721 26-976): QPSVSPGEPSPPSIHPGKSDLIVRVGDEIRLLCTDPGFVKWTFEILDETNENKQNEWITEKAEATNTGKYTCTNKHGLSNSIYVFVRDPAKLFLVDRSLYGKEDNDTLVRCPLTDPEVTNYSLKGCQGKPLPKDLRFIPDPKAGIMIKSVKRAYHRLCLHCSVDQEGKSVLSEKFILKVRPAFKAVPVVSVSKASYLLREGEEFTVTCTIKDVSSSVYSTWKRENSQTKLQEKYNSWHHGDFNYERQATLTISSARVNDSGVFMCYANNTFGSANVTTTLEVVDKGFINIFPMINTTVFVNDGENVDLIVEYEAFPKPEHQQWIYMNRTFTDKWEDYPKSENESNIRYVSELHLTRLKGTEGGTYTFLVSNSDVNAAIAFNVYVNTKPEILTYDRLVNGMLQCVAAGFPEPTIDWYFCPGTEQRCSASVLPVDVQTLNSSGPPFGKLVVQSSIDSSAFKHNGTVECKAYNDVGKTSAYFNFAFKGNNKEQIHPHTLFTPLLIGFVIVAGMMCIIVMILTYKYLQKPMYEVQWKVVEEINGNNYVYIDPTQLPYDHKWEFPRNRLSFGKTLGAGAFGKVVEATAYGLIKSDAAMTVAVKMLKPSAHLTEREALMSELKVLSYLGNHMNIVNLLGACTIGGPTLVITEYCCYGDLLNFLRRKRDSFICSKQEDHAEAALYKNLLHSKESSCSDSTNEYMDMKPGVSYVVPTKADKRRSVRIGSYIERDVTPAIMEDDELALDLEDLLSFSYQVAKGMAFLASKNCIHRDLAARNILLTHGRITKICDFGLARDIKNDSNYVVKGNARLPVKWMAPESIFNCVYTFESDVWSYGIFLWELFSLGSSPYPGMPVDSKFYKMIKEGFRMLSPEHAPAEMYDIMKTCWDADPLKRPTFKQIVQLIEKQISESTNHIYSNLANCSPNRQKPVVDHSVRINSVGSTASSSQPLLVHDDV

| Structure (SMILES) | Kd (FLT3 kinase) | Kd (KIT kinase) | IC50 (FLT3-ITD) |
| --- | --- | --- | --- |
| O=C(Cc1ccc(-c2cnc3[nH]c(C(=O)O)cc3c2)cc1F)Nc1cc(C2(C(F)(F)F)CC2)on1 [Example 106, 5-[3-fluoro-4-[2-oxo-2-[[5-[1-(trifluoromethyl)cyclo-propyl]isoxazol-3-yl]amino]ethyl]phenyl]-1H-pyrrolo[2,3-b]pyridine-2-carboxylic acid] | < 5 nM | < 5 nM | 10 to 20 nM |
| CS(=O)(=O)CCNC(=O)c1cc2cc(-c3ccc(CC(=O)Nc4cc(C5(C(F)(F)F)CC5)on4)c(F)c3)cnc2[nH]1 [Example 107, 5-[3-fluoro-4-[2-oxo-2-[[5-[1-(trifluoromethyl)cyclo-propyl]isoxazol-3-yl]amino]ethyl]phenyl]-N-(2-methylsulfonylethyl)-1H-pyrrolo[2,3-b]pyridine-2-carboxamide] | < 5 nM | < 5 nM | < 10 nM |
| CN(C)CCNC(=O)c1cc2cc(-c3ccc(CC(=O)Nc4cc(C5(C(F)(F)F)CC5)on4)c(F)c3)cnc2[nH]1 [Example 108, N-[2-(dimethylamino)ethyl]-5-[3-fluoro-4-[2-oxo-2-[[5-[1-(trifluoromethyl)cyclo-propyl]isoxazol-3-yl]amino]ethyl]phenyl]-1H-pyrrolo[2,3-b]pyridine-2-carboxamide] | < 5 nM | < 5 nM | < 10 nM |
| Cn1cc(-c2n[nH]c3ncc(-c4ccc(CC(=O)Nc5cc(C(C)(C)C)on5)cc4)cc23)cn1 [Example 109, N-(5-tert-butylisoxazol-3-yl)-2-[4-[3-(1-methylpyrazol-4-yl)-1H-pyrazolo[3,4-b]pyridin-5-yl]phenyl]acetamide] | < 5 nM | < 5 nM | < 10 nM |
| CN(C)C1CCN(C(=O)c2cc3cc(-c4ccc(CC(=O)Nc5cc(C6(C(F)(F)F)CC6)on5)c(F)c4)cnc3[nH]2)C1 (stereo not drawn) [Example 110, 2-[4-[2-[3-(dimethylamino)pyrrolidine-1-carbonyl]-1H-pyrrolo[2,3-b]pyridin-5-yl]-2-fluoro-phenyl]-N-[5-[1-(trifluoro-methyl)cyclopropyl]isoxazol-3-yl]acetamide] | < 5 nM | < 5 nM | < 10 nM |
| O=C(Cc1ccc(-c2cnc3[nH]c(C(=O)N4CC(O)C4)cc3c2)cc1F)Nc1cc(C2(C(F)(F)F)CC2)on1 [Example 111, 2-[2-fluoro-4-[2-(3-hydroxyazetidine-1-carbonyl)-1H-pyrrolo[2,3-b]pyridin-5-yl]phenyl]-N-[5-[1-(trifluoro-methyl)cyclopropyl]isoxazol-3-yl]acetamide] | < 5 nM | < 5 nM | < 10 nM |
| O=C(Cc1ccc(-c2cnc3[nH]c(C(=O)NC4CNC4)cc3c2)cc1F)Nc1cc(C2(C(F)(F)F)CC2)on1 [Example 112, N-(azetidin-3-yl)-5-[3-fluoro-4-[2-oxo-2-[[5-[1-(trifluoromethyl)cyclo-propyl]isoxazol-3-yl]amino]ethyl]phenyl]-1H-pyrrolo[2,3-b]pyridine-2-carboxamide] | < 5 nM | < 5 nM | < 10 nM |
| CN1CC(NC(=O)c2cc3cc(-c4ccc(CC(=O)Nc5cc(C6(C(F)(F)F)CC6)on5)c(F)c4)cnc3[nH]2)C1 [Example 113, 5-[3-fluoro-4-[2-oxo-2-[[5-[1-(trifluoromethyl)cyclo-propyl]isoxazol-3-yl]amino]ethyl]phenyl]-N-(1-methylazetidin-3-yl)-1H-pyrrolo[2,3-b]pyridine-2-carboxamide] | < 5 nM | < 5 nM | < 10 nM |
| CC(C)(c1cc(NC(=O)Cc2ccc(-c3cnc4[nH]nc(OCCOC(F)(F)F)c4c3)cc2F)no1)C(F)(F)F [Example 114, 2-[2-fluoro-4-[3-[2-(trifluoromethoxy)ethoxy]-1H-pyrazolo[3,4-b]pyridin-5-yl]phenyl]-N-[5-(2,2,2-trifluoro-1,1-dimethyl-ethyl)isoxazol-3-yl]acetamide] | < 5 nM | 5 to 20 nM | < 10 nM |
| COc1cc2ncc(-c3ccc(CC(=O)Nc4cc(C(C)(C)C(F)(F)F)on4)c(F)c3)cc2c(OC)c1OC [Example 115, 2-[2-fluoro-4-(5,6,7-trimethoxy-3-quinolyl)phenyl]-N-[5-(2,2,2-trifluoro-1,1-dimethyl-ethyl)isoxazol-3-yl]acetamide] | < 5 nM | 5 to 20 nM | < 10 nM |
| COc1cc2ncc(-c3ccc(CC(=O)Nc4cc(C(C)(C)C)on4)cc3)cc2c(OC)c1OC [Example 116, N-(5-tert-butylisoxazol-3-yl)-2-[4-(5,6,7-trimethoxy-3-quinolyl)phenyl]acetamide] | < 5 nM | < 5 nM | < 10 nM |
| CN(C)NC(=O)c1cc2cc(-c3ccc(CC(=O)Nc4cc(C5(C(F)(F)F)CC5)on4)c(F)c3)cnc2[nH]1 [Example 117, 2-[4-[2-(dimethylaminocarbamoyl)-1H-pyrrolo[2,3-b]pyridin-5-yl]-2-fluoro-phenyl]-N-[5-[1-(trifluoro-methyl)cyclopropyl]isoxazol-3-yl]acetamide] | < 5 nM | < 5 nM | < 10 nM |
| CCOc1cc2ncc(-c3ccc(CC(=O)Nc4cc(C5(C(F)(F)F)CC5)on4)c(F)c3)nc2cc1OCC [Example 118, 2-[4-(6,7-diethoxyquinoxalin-2-yl)-2-fluoro-phenyl]-N-[5-[1-(trifluoromethyl)cyclo-propyl]isoxazol-3-yl]acetamide] | < 5 nM | < 5 nM | < 10 nM |
| O=C(Cc1ccc(-c2cnc3cc4c(cc3n2)OCO4)cc1F)Nc1cc(C2(C(F)(F)F)CC2)on1 [Example 119, 2-[4-([1,3]dioxolo[4,5-g]quinoxalin-6-yl)-2-fluoro-phenyl]-N-[5-[1-(trifluoro-methyl)cyclopropyl]isoxazol-3-yl]acetamide] | < 5 nM | < 5 nM | < 10 nM |
| COCCOc1cc2ncc(-c3ccc(CC(=O)Nc4cc(C(C)(C)C)on4)cc3)nc2cc1OCCOC [Example 120, 2-[4-[6,7-bis(2-methoxyethoxy)quinoxalin-2-yl]phenyl]-N-(5-tert-butylisoxazol-3-yl)acetamide] | < 5 nM | < 5 nM | < 10 nM |
| O=C(Cc1ccc(-c2cnc3cc4c(cc3n2)OC[C@@H](CO)O4)cc1F)Nc1cc(C2(C(F)(F)F)CC2)on1 [Example 121, 2-[2-fluoro-4-[(2R)-2-(hydroxymethyl)-2,3-dihydro-[1,4]dioxino[2,3-g]quinoxalin-7-yl]phenyl]-N-[5-[1-(trifluoro-methyl)cyclopropyl]isoxazol-3-yl]acetamide] | < 5 nM | < 5 nM | < 10 nM |
| O=C(Cc1ccc(-c2cnc3cc4c(cc3n2)O[C@H](CO)CO4)cc1F)Nc1cc(C2(C(F)(F)F)CC2)on1 [Example 122, 2-[2-fluoro-4-[(3R)-3-(hydroxymethyl)-2,3-dihydro-[1,4]dioxino[2,3-g]quinoxalin-7-yl]phenyl]-N-[5-[1-(trifluoro-methyl)cyclopropyl]isoxazol-3-yl]acetamide] | < 5 nM | < 5 nM | < 10 nM |
| COc1cc2nc(N)c(-c3ccc(CC(=O)Nc4cc(C5(C(F)(F)F)CC5)on4)c(F)c3)nc2cc1OC [Example 123, 2-[4-(3-amino-6,7-dimethoxy-quinoxalin-2-yl)-2-fluoro-phenyl]-N-[5-[1-(trifluoro-methyl)cyclopropyl]isoxazol-3-yl]acetamide] | < 5 nM | < 5 nM | < 10 nM |
| COc1cc2nc(OC)c(-c3ccc(CC(=O)Nc4cc(C5(C(F)(F)F)CC5)on4)c(F)c3)nc2cc1OC [Example 124, 2-[2-fluoro-4-(3,6,7-trimethoxyquinoxalin-2-yl)phenyl]-N-[5-[1-(trifluoro-methyl)cyclopropyl]isoxazol-3-yl]acetamide] | < 5 nM | 5 to 20 nM | 10 to 20 nM |
| COCCOc1cc2ncc(-c3ccc(CC(=O)Nc4cc(C5(C(F)(F)F)CC5)on4)c(F)c3)nc2cc1OCCOC [Example 125, 2-[4-[6,7-bis(2-methoxyethoxy)quinoxalin-2-yl]-2-fluoro-phenyl]-N-[5-[1-(trifluoro-methyl)cyclopropyl]isoxazol-3-yl]acetamide] | < 5 nM | < 5 nM | < 10 nM |
| COCCOc1cc2ncc(-c3ccc(CC(=O)Nc4cc(C5(C(F)(F)F)CC5)on4)c(F)c3)cc2cc1OC [Example 126, 2-[2-fluoro-4-[6-methoxy-7-(2-methoxyethoxy)-3-quinolyl]phenyl]-N-[5-[1-(trifluoromethyl)cyclo-propyl]isoxazol-3-yl]acetamide] | < 5 nM | < 5 nM | < 10 nM |
| COc1cc2cc(-c3ccc(CC(=O)Nc4cc(C5(C(F)(F)F)CC5)on4)c(F)c3)cnc2cc1OCCOC(C)=O [Example 127, 2-[[3-[3-fluoro-4-[2-oxo-2-[[5-[1-(trifluoro-methyl)cyclopropyl]isoxazol-3-yl]amino]ethyl]phenyl]-6-methoxy-7-quinolyl]oxy]ethyl acetate] | < 5 nM | < 5 nM | < 10 nM |
| COc1cc2cc(-c3ccc(CC(=O)Nc4cc(C5(C(F)(F)F)CC5)on4)c(F)c3)cnc2cc1OC [Example 128, 2-[4-(6,7-dimethoxy-3-quinolyl)-2-fluoro-phenyl]-N-[5-[1-(trifluoro-methyl)cyclopropyl]isoxazol-3-yl]acetamide] | < 5 nM | < 5 nM | < 10 nM |
| COc1cc2cc(-c3ccc(CC(=O)Nc4cc(C(C)(C)C(F)(F)F)on4)c(F)c3)cnc2cc1OC [Example 129, 2-[4-(6,7-dimethoxy-3-quinolyl)-2-fluoro-phenyl]-N-[5-(2,2,2-trifluoro-1,1-dimethyl-ethyl)isoxazol-3-yl]acetamide] | < 5 nM | < 5 nM | < 10 nM |
